Experimental data as given in patent publication US20130231303A1, “5-HALOGENOPYRAZOLE(THIO)CARBOXAMIDES” (Bayer Intellectual Property GmbH, priority 2010, published 2013).
Like-named read-outs stand apart in the source and are kept apart here.

Columns and labels:
[1] = logP by HPLC on reversed-phase column (EEC Directive 79/831 Annex V.A8); assay type: physicochemical
Description: In table 1, the logP values were determined in accordance with EEC Directive 79/831 Annex V.A8 by HPLC (High Performance Liquid Chromatography) on a reversed-phase column (C 18), using the method described below: Temperature: 40° C.; Mobile phases: 0.1% aqueous formic acid and acetonitrile; linear gradient from 10% acetonitrile to 90% acetonitrile. Calibration was carried out using unbranched alkan-2-ones (comprising 3 to 16 carbon atoms) with known logP values (determination of the logP values by the retention times using linear interpolation between two successive alkanones). lambda-max-values were determined using UV-spectra from 200 nm to 400 nm and the peak values of the chromatographic signals.

Puccinia recondita = test: Puccinia test (wheat)/preventive; assay type: in vivo; details: preventive, 500 ppm, evaluated 7-9 days after inoculation
Description: (§1) The plants remain for 48 hours in an incubation cabinet at 22° C. and a relative atmospheric humidity of 100%. Then the plants are placed in a greenhouse at a temperature of approximately 20° C. and a relative atmospheric humidity of approximately 80%.

Pyrenophora teres = test: Pyrenophora test (barley)/preventive; assay type: in vivo; details: preventive, 500 ppm, evaluated 7-9 days after inoculation
Description: as §1

Alternaria solani = test: Alternaria test (tomato)/preventive; assay type: in vivo; details: preventive, 500 ppm, evaluated 7 days after inoculation
Description: The plants remain for one day in an incubation cabinet at approximately 22° C. and a relative atmospheric humidity of 100%. Then the plants are placed in an incubation cabinet at approximately 20° C. and a relative atmospheric humidity of 96%.

Sphaerotheca fuliginea = test: Sphaerotheca test (cucumber)/preventive; assay type: in vivo; details: preventive, 500 ppm, evaluated 7 days after inoculation
Description: Then the plants are placed in a greenhouse at approximately 23° C. and a relative atmospheric humidity of approximately 70%.

[2] = system: Fusarium nivale (var. majus); test: Fusarium nivale (var. majus)-test (wheat)/preventive; assay type: in vivo; details: preventive; for Efficacy: evaluated 5 days after inoculation
Description: After the spray coating has been dried, the plants are slightly injured by using a sandblast and afterwards they are sprayed with a conidia suspension of Fusarium nivale (var. majus). The plants are placed in the greenhouse under a translucent incubation cabinet at a temperature of approximately 10° C. and a relative atmospheric humidity of approximately 100%.

[3] = system: Blumeria graminis f.sp. hordei; test: Blumeria test (barley)/preventive; assay type: in vivo; details: preventive, 500 ppm, evaluated 7 days after inoculation
Description: After the spray coating has been dried, the plants are dusted with spores of Blumeria graminis f.sp. hordei. The plants are placed in the greenhouse at a temperature of approximately 18° C. and a relative atmospheric humidity of approximately 80% to promote the development of mildew pustules.

Venturia inaequalis = test: Venturia test (apples)/preventive; assay type: in vivo; details: preventive, 100 ppm, evaluated 10 days after inoculation
Description: Venturia Test (Apples)/Preventive […] After the spray coating has dried on, the plants are inoculated with an aqueous conidia suspension of the causal agent of apple scab (Venturia inaequalis) and then remain for 1 day in an incubation cabinet at approximately 20° C. and a relative atmospheric humidity of 100%.

Uromyces appendiculatus = test: Uromyces test (beans)/preventive; assay type: in vivo; details: preventive, 100 ppm, evaluated 10 days after inoculation
Text: Uromyces Test (Beans)/Preventive

Botrytis cinerea = test: Botrytis test (beans)/preventive; assay type: in vivo; details: preventive, 100 ppm, lesion size 2 days after inoculation
Description: Botrytis Test (Beans)/Preventive
• Solvent: 24.5 parts by weight of acetone • 24.5 parts by weight of N,N-dimethylformamide • Emulsifier: 1 part by weight of alkylaryl polyglycol ether
After the spray coating has dried on, 2 small pieces of agar covered with growth of Botrytis cinerea are placed on each leaf. The inoculated plants are placed in a darkened chamber at 20° C. and a relative atmospheric humidity of 100%.
2 days after the inoculation, the size of the lesions on the leaves is evaluated.

Phakopsora pachyrhizi = test: Phakopsora test (soybeans)/protective; assay type: in vivo; details: protective, 250 ppm, evaluated 11 days after inoculation
Text: Phakopsora Test (Soybeans)/Protective

[4] = HPLC, reversed-phase C 18, 40° C., 0.1% aqueous formic acid and acetonitrile gradient

Row | Compound | Efficacy (Puccinia recondita) [%] | Efficacy (Pyrenophora teres) [%] | logP [1, 4] | Efficacy (Alternaria solani) [%] | also measured
1 | Cc1ccc(-c2ccsc2NC(=O)c2c(C(F)F)nn(C)c2F)cc1 [Example 40] | – | – | – | – | logP [1]: 3.60
2 | CCC(=Cc1sccc1NC(=O)c1c(C(F)F)nn(C)c1Cl)CC [Example 24] | 90 | 90 | – | – | logP [1]: 4.06
3 | CCCC(C)c1sccc1NC(=O)c1c(C(F)F)nn(C)c1Cl (stereo not shown) [Example 2] | 100 | 100 | 3.70 | 94 | –
4 | CC(CCCC#N)c1sccc1NC(=O)c1c(C(F)F)nn(C)c1Cl (stereo not shown) [Example 11] | 100 | 94 | – | – | logP [1]: 2.57
5 | CC(=CCC(C)C)c1sccc1NC(=O)c1c(C(F)F)nn(C)c1Cl (mixture of isomers) [Example 34] | – | 78 | – | – | –
6 | CC(CC(C)(C)C)c1sccc1NC(=O)c1c(C(F)F)nn(C)c1Cl (stereo not shown) [Example 17] | 100 | 94 | 4.29 | 94 | Efficacy (Sphaerotheca fuliginea): 100%
7 | CC(=CC(C)(C)C)c1sccc1NC(=O)c1c(C(F)F)nn(C)c1Cl (mixture of isomers) [Example 33] | 95 | 94 | – | 88 | –
8 | Cn1nc(C(F)F)c(C(=O)Nc2ccsc2C=C2CCCCC2)c1Cl [Example 30] | – | 80 | – | 70 | logP [1]: 4.25
9 | CC=C(c1sccc1NC(=O)c1c(C(F)F)nn(C)c1Cl)C(C)C [Example 27] | 80 | 89 | 4.26 | 75 | –
10 | CC(C)CC(C)c1sccc1NC(=O)c1cn(C)nc1C(F)(F)F (stereo not shown) [Example 1.13 from EP-0737682, 1-methyl-N-[2-(4-methylpentan-2-yl)-3-thienyl]-3-(trifluoromethyl)-1H-pyrazole-4-carboxamide, reference compound] | – | – | – | – | Efficacy ([2]; 250 ppm): 14%; Efficacy ([2]; 500 ppm): 43%; protection ([2]; dose of 250 ppm and 500 ppm (text summary of table G2)): less than 50%
11 | CCC(C)=C(C)c1sccc1NC(=O)c1c(C(F)F)nn(C)c1Cl [Example 28] | 80 | 100 | 4.23 | 94 | –
12 | CCCCC(C)c1sccc1NC(=O)c1c(C(F)F)nn(C)c1Cl (stereo not shown) [Example 7] | 100 | 95 | 4.25 | – | Efficacy ([2]; 500 ppm): 90%
13 | CCC(CC(C)C)c1sccc1NC(=O)c1c(C(F)F)nn(C)c1Cl (stereo not shown) [Example 15] | 90 | 100 | 4.46 | 88 | Efficacy [3]: 94%
14 | CCC(c1sccc1NC(=O)c1c(C(F)F)nn(C)c1Cl)C(C)C (stereo not shown) [Example 9] | 80 | 100 | 4.07 | 94 | –
15 | CC(C)CCc1sccc1NC(=O)c1c(C(F)F)nn(C)c1Cl [Example 1] | 95 | 100 | 3.74 | 100 | Efficacy [3]: 94%; Efficacy ([2]; 500 ppm): 80%
16 | CCC=C(CCC)c1sccc1NC(=O)c1c(C(F)F)nn(C)c1Cl (mixture of isomers) [Example 32] | 80 | – | – | – | –
17 | Cn1nc(C(F)F)c(C(=O)Nc2ccsc2CCC(C)(C)C)c1Cl [Example 6] | 100 | 100 | 4.01 | 95 | Efficacy [3]: 94%; Efficacy ([2]; 500 ppm): 100%; Efficacy (Sphaerotheca fuliginea): 89%
18 | CCC(C)C(C)Cc1sccc1NC(=O)c1c(C(F)F)nn(C)c1Cl (stereo not shown) [Example 13] | 90 | 100 | 4.41 | 95 | Efficacy [3]: 100%; Efficacy ([2]; 500 ppm): 100%
19 | CCCC(CCC)c1sccc1NC(=O)c1c(C(F)F)nn(C)c1Cl [Example 14] | 70 | 94 | – | – | logP [1]: 4.54

Row | Compound | Efficacy (Puccinia recondita) [%] | Efficacy (Pyrenophora teres) [%] | logP [1, 4] | Efficacy (Alternaria solani) [%] | also measured
20 | Cn1nc(C(F)F)c(C(=O)Nc2cc(-c3ccc(Cl)cc3)cs2)c1F [Example 41] | – | – | – | – | logP [1]: 3.87
21 | CCC(CC)Cc1sccc1NC(=O)c1c(C(F)F)nn(C)c1Cl [Example 5] | 90 | 100 | 4.03 | 100 | –
22 | Cn1nc(C(F)F)c(C(=O)Nc2ccsc2CC[Si](C)(C)C)c1F [Example 19] | 100 | 100 | 4.06 | 90 | Efficacy (Venturia inaequalis): 99%; Efficacy [3]: 100%; Efficacy ([2]; 500 ppm): 100%; Efficacy (Uromyces appendiculatus): 100%; Efficacy (Botrytis cinerea): 100%; Efficacy (Sphaerotheca fuliginea): 100%
23 | CCC(C)C(C)c1sccc1NC(=O)c1c(C(F)F)nn(C)c1Cl (stereo not shown) [Example 10] | 90 | 100 | – | – | logP [1]: 3.99
24 | CCC(C)C(C)=Cc1sccc1NC(=O)c1c(C(F)F)nn(C)c1Cl (stereo not shown) [Example 31] | – | 70 | 4.41 | – | –
25 | CCC=C(C)c1sccc1NC(=O)c1c(C(F)F)nn(C)c1Cl (mixture of isomers) [Example 22] | 80 | 94 | – | 94 | –
26 | CC=C(c1ccccc1)c1sccc1NC(=O)c1c(C(F)F)nn(C)c1Cl [Example 37] | – | – | – | – | logP [1]: 3.70
27 | CC(C)CC(C)c1sccc1NC(=O)c1c(C(F)F)nn(C)c1F (stereo not shown) [Example 4] | 100 | 100 | 3.94 | 100 | Efficacy (Venturia inaequalis): 100%; Efficacy [3]: 100%; Efficacy (Uromyces appendiculatus): 100%; Efficacy (Phakopsora pachyrhizi): 99%; Efficacy (Botrytis cinerea): 97%; Efficacy (Sphaerotheca fuliginea): 100%
28 | CCCCC=Cc1sccc1NC(=O)c1c(C(F)F)nn(C)c1Cl [Example 25] | – | – | – | – | logP [1]: 4.12
29 | CC(c1sccc1NC(=O)c1c(C(F)F)nn(C)c1Cl)C1CCCCC1 (stereo not shown) [Example 21] | 95 | 100 | 4.56 | 95 | –
30 | Cn1nc(C(F)F)c(C(=O)Nc2ccsc2C=CC(C)(C)C)c1Cl [Example 23] | 90 | 80 | 3.92 | 70 | –
31 | Cn1nc(C(F)F)c(C(=O)Nc2ccsc2CC2CCCCC2)c1Cl [Example 12] | 95 | 100 | 4.27 | 100 | Efficacy [3]: 94%
32 | CCCC=C(C)c1sccc1NC(=O)c1c(C(F)F)nn(C)c1Cl (mixture of isomers) [Example 26] | – | 89 | – | 75 | –
33 | CCCCC(C)c1sccc1NC(=O)c1c(C(F)F)nn(C)c1Cl (stereo not shown) [Example 8] | 95 | 100 | 4.13 | 94 | –
34 | CC(C)CCC(C)c1sccc1NC(=O)c1c(C(F)F)nn(C)c1Cl (stereo not shown) [Example 16] | 100 | 94 | 4.45 | 88 | –
35 | C=C(c1sccc1NC(=O)c1c(C(F)F)nn(C)c1Cl)C1CCCCC1 [Example 36] | 80 | 95 | – | – | –
36 | Cn1nc(C(F)F)c(C(=O)Nc2ccsc2CC[Si](C)(C)C)c1Cl [Example 18] | 100 | 100 | 4.30 | 80 | Efficacy (Venturia inaequalis): 94%; Efficacy [3]: 92%; Efficacy ([2]; 500 ppm): 100%; Efficacy (Uromyces appendiculatus): 100%; Efficacy (Botrytis cinerea): 91%; Efficacy (Sphaerotheca fuliginea): 98%
37 | Cn1nc(C(F)F)c(C(=S)Nc2ccsc2CC[Si](C)(C)C)c1F [Example 20] | – | – | – | – | logP [1]: 4.46
38 | Cn1nc(C(F)F)c(C(=O)Nc2ccsc2-c2ccccc2)c1F [Example 38] | – | – | – | – | logP [1]: 3.11
